In brackets after ≈: the same amount, converted by molar mass.
Experiments:
[1] = Thermodynamic aqueous solubility; format: physicochemical; settings: water, equilibrated at 25° C. for 24 hours
Experimental: Aqueous solubility was determined by suspending sufficient compound in water to give a maximum final concentration of ≧10 mg·ml−1 of the parent free-form of the compound. The suspension was equilibrated at 25° C. for 24 hours then the pH was measured. The suspension was then filtered through a glass fiber C filter into a 96 well plate unless stated otherwise. The filtrate was then diluted by a factor of 101. Quantification was by HPLC with reference to a standard solution of approximately 0.25 mg·ml^−1 in DMSO. Different volumes of the standard, diluted and undiluted sample solutions were injected. The solubility was calculated using the peak areas determined by integration of the peak found at the same retention time as the principal peak in the standard injection.
(§1) Analysis was performed on an Agilent HP1100 series system equipped with a diode array detector and using ChemStation software vB.02.01-SR1.

[2] = Solubility assessment at various pH levels (solubility profile); format: physicochemical; settings: 0.15M NaCl solution, saline or isotonic, thermodynamic from solid
Experimental: For solubility assessment at various pH levels sufficient material to produce a maximum concentration of 10 mg·ml^−1 of API was treated with 0.15M NaCl solution and then the pH adjusted with HCl or NaOH solutions to achieve the desired pH levels. The suspensions were allowed to equilibrate for 2 hours and the pH measured and adjusted if necessary. Suspensions were then filtered and the amount of dissolved API quantified by HPLC against a standard reference solution.
as §1
The solubility of both the free acid and amorphous sodium salt was determined at a range of pH values.

[3] = Metabolite identification in hepatocytes; format: in vitro ADME, rat, dog, monkey, human; settings: rat, dog or human hepatocytes
Experimental: Rat, dog, monkey, or human hepatocytes were thawed according to the supplier's instructions. Cells were counted using the Trypan Blue method, and then diluted to 1×10^6 viable cells/ml with KB medium. Compound 1 was tested at 30 μM and incubated for up to 2 hours in rat hepatocytes and 4 hours in dog, monkey or human hepatocytes at 37° C. Reactions were terminated with addition of 3 times incubation volume of acetonitrile, centrifuged, and supernatants were transferred, nitrogen blow dried and reconstituted in 50% acetonitrile in water for LC/MS analysis.
LC/MS/MS analysis was carried out with a Sciex API-4000Qtrap tandem mass spectrometer (Applied Biosystems/Life Technologies, Carlsbad, Calif.) interfaced to a high-performance liquid chromatography system consisting of an Agilent 1200 series pump (Foster City, Calif.) and a LEAP Technologies PAL autoinjector (Carrboro, N.C.).
(§2) Parent/metabolite analysis was conducted in the positive ion mode (ESI) by multiple reaction monitoring of parent. The mobile phases contained 10 mM ammonium acetate in water with 0.05% formic acid (solvent A) and 10 mM ammonium acetate in 50% acetonitrile/50% methanol with 0.05% formic acid (solvent B). For Compound 1, the flow rate was maintained at 1 mL/min and the total run time was 2.5 min. Analytes were separated on a YMC ODS-AQ column (2.1×150 mm; 3 μm) and eluted with a linear gradient as follows: • 1. mobile phase was held for 0.5 min at 5% B, • 2. B was increased from 5% to 95% over the next 0.2 min, • 3. B was held constant for 1.3 min at 95%, and • 4. B was returned to the initial gradient conditions.
GSH adducts were investigated in microsomes, hepatocytes and rat bile using several methods including the neutral loss of pyroglutamate (129 Da) as well as a precursor ion scans of Compound 1 (105 Da, 318 Da and 438 Da).
For metabolite quantitation, the flow rate was maintained at 0.25 mL/min and the total run time was 60 min. Analytes were separated using a linear gradient as follows: • 1. mobile phase was held for 5 min at 5% B, • 2. B was increased from 5% to 95% over the next 45 min. • 3. […]

[4] = Metabolites generated in vivo (rat bile and urine, rat and dog plasma)
Experimental: Compound 2 (2 mg/kg) was administered intravenously (IV) to fasted rats as a solution in 0.9% saline via a bolus injection into the jugular vein (2 mg/mL; […]).
Rats with surgically placed bile duct and jugular vein cannula were purchased from Charles River Laboratories and allowed to acclimate for 2 days. Compound 2 was intravenously dosed (2 mg/kg) to three rats as a solution in 0.9% saline (2 mg/mL; 1 mL/kg). Bile samples were collected at time-points 0-2, 2-5 and 5-8, and urine samples were collected at time-points 0-4 and 4-8 hrs post-dose in 8 mL scintillation vials and stored at −40° C. until analysis.
Concentrations of Compound 1 in rat plasma were determined by LC-MS/MS after protein precipitation. Rat plasma (100 μL) was treated with 400 μL of internal standard solution (ISTD, buspirone in acetonitrile containing 1.5% acetic acid) to precipitate proteins. Samples were vortexed and then centrifuged for 10 min at approximately 4,000 rpm (3700×g) at 4° C. (Beckman centrifuge, Brea, Calif.).
as §2
For metabolite quantitation, the flow rate was maintained at 0.25 mL/min and the total run time was 60 min. Analytes were separated using a linear gradient as follows: • 1. mobile phase was held for 5 min at 5% B, • 2. B was increased from 5% to 95% over the next 45 min. • 3. B was held constant for 5 min at 95%, and • 4. B was returned to the initial gradient conditions

[5] = tested on: human A2058 melanoma cells; assay: LPA1 Chemotaxis Assay; format: cell-based; settings: 100 nM LPA, read-out: IC50, LPA-driven chemotaxis
Experimental: Chemotaxis of the A2058 human melanoma cells was measured using the Neuroprobe ChemoTx® System plates (8 μm pore size, 5.7 mm diameter sites). The filter sites were coated with 0.001% fibronectin (Sigma) in 20 mM Hepes, pH 7.4 and allowed to dry. A2058 cells were serum-starved for 24 hours, then harvested with Cell Stripper and resuspended in DMEM containing 0.1% fatty-acid-free bovine serum albumin (BSA) to a concentration of 1×10^6/ml. Cells were mixed with an equal volume of test compound (2×) in DMEM containing 0.1% fatty-acid-free BSA and incubated at 37° C. for 15 minutes. LPA (100 nM in DMEM containing 0.1% fatty-acid-free BSA) or vehicle was added to each well of the lower chamber and 50 μl of the cell suspension/test compound mix was applied to the upper portion of the ChemoTx plate. Plates were incubated at 37° C. for three hours and then the cells removed from the upper portion by rinsing with PBS and scraping. The filter was dried then stained with HEMA 3 Staining System (Fisher Scientific). The absorbance of the filter was read at 590 nm and IC50s were determined using Symyx Assay Explorer.

[6] = target: LPA5 (Homo sapiens, UniProt Q9H1C0); assay: LPA5 Calcium Flux Assay; format: cell-based; settings: read-out: Ca Flux IC50 LPA5
Sequence of LPA5 (Q9H1C0 whole entry, species assumed): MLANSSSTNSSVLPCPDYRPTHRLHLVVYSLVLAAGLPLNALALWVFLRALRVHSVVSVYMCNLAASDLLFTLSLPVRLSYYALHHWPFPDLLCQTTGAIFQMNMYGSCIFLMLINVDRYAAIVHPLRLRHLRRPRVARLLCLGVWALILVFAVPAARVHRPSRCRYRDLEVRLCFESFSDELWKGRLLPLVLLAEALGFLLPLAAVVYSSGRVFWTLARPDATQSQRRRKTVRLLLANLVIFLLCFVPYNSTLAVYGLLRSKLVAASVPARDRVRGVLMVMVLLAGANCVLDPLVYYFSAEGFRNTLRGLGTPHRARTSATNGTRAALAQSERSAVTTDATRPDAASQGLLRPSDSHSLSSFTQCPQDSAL

Question: Which solubility at 24 h ([1]; 25 °C, thermodynamic from solid, read-out: Solubility (mg/ml, free form equivalent)) does the source give for `Cc1noc(-c2ccc(-c3ccc(C4(C(=O)O)CC4)cc3)cc2)c1NC(=O)O[C@H](C)c1ccccc1` [Compound 1, 1-{4′-[3-methyl-4-((R)-1-phenyl-ethoxycarbonylamino)-isoxazol-5-yl]-biphenyl-4-yl}-cyclopropanecarboxylic acid] here?
Answer: 0.028 mg/mL

Question: What about the “Solubility (mg/ml, free form equivalent)” value ([1]; listed as free acid) of the same compound?
Answer: 0.031 mg/mL

Question: What about the solubility at 2 h ([2]; Target pH 3, pH adjusted with HCl or NaOH) of the same compound?
Answer: < 1 µg/mL

Question: And the solubility at 2 h ([2]; Target pH 4, pH adjusted with HCl or NaOH)?
Answer: < 1 µg/mL

Question: And the solubility at 2 h ([2]; Target pH 5, pH adjusted with HCl or NaOH)?
Answer: < 1 µg/mL

Question: And the solubility at 2 h ([2]; Target pH 6, pH adjusted with HCl or NaOH)?
Answer: < 1 µg/mL

Question: What about the solubility at 2 h ([2]; Target pH 7, pH adjusted with HCl or NaOH) of the same compound?
Answer: 3.3 µg/mL (≈ 6.84 µM)

Question: And the solubility at 2 h ([2]; Target pH 8, pH adjusted with HCl or NaOH)?
Answer: 35 µg/mL (≈ 72.5 µM)

Question: What about the solubility at 2 h ([2]; Target pH 9, pH adjusted with HCl or NaOH) of the same compound?
Answer: 930 µg/mL (≈ 1930 µM)

Question: And the solubility at 2 h ([2]; Target pH 11, pH adjusted with HCl or NaOH)?
Answer: 13000 µg/mL (≈ 26900 µM)

Question: What about the “GSH adduct in hepatocytes” value [3] of the same compound?
Answer: No GSH adduct was observed

Question: And the “GSH adduct in rat bile” value ([4]; in vivo)?
Answer: neither GSH adduct is observed

Question: And the “primary amine (decarboxylation) and its secondary metabolites” value ([4]; plasma (rat & dog), rat bile or urine)?
Answer: Neither the primary amine (i.e. decarboxylation) nor its secondary metabolites (glycosylation or glucuronidation) are observed

Question: And the IC50 [5]?
Answer: < 100 nM

Question: And the IC50 [6]?
Answer: > 1000 nM

— US20170121295A1, “POLYCYCLIC LPA1 ANTAGONIST AND USES THEREOF” (AMIRA PHARMACEUTICALS, INC., priority 2010, published 2017)
